Experimental findings from patent US12084411B2, “Hinokitiol analogues, methods of preparing and pharmaceutical compositions thereof” (The Board of Trustees of the University of Illinois, priority 2018, dated 2024) are described below.

A word on the EC90: it is the concentration at which the effect reaches the 90% level.

Bounds are passed on as bounds.

Series [1] is described as follows: WST-8 toxicity in J774 cells. The note with it: mouse, wild type J774 cells; Wild Type J774, WST-8 assay after ≥24 hours of incubation. It is filed as cell-based, mouse.
Experimental: Determination of small molecule-mediated toxicity in Caco-2, MEL, and/or J774 cells was performed according to manufacturer instructions using a WST-8 kit (Cayman Chemical 10010199) similar to previously reported (76) using a 1000× stock of the indicated small molecule in DMSO to give the indicated final concentration.
The test system of the next series is J774. Description: WST-8 toxicity in J774 cells. Type of series: cell-based, mouse. The note with it: J774 macrophages.
For series [2], the system named is DMT1-deficient Belgrade (b/b) rats. The series can be described thus: 59Fe gut absorption in Belgrade rats. The note with it: 1.5 mg/kg, oral gavage. Type of series: in vivo. Here is the method:
^59Fe gastrointestinal absorption of iron in 3-5-month-old b/b rats was characterized similar to the procedure described above in the presence of either 6 mM hinokitiol or 6 mM C2deOHino. To compare with the rate of normal iron uptake, age-matched sibling control (+/+ or +/b) Belgrade rats were tested by the same procedure except that ^59Fe was administered without small molecule. Blood (50 μL) was taken from the tail vein at 15, 30, 60, 120, 180, 240, and 360 minutes post administration. Radioactivity was quantified by gamma counting and calculated as the percentage of gavaged dose (±SEM). Animals were humanely euthanized at 6 hours.

For series [3], the system named is Alas2-deficient sauternes zebrafish. Description: Hemoglobinization in Alas2-deficient sauternes zebrafish. It is filed as in vivo, Danio rerio. The note with it: heterozygous cross of +/sau fish, 1 μM, 48 hours. Here is the method:
Either mutant or morphant embryos were allowed to develop to >24 hours post fertilization (hpf), then dechorionated with pronase as previously described (81). The dechorionated embryos or morphants were then incubated in the presence of 1 μM hinokitiol (or vehicle) and 10 μM iron (III) citrate for an additional forty-eight hours. Vehicle treated embryos were exposed to […]. C2deOHino (1 μM) with iron (III) citrate (10 μM) was used as a negative control. Control and either mutant or morphant embryos at ˜72 hpf were either (a) directly stained by o-dianisidine (79) or (b) mechanically homogenized as previously described for flow cytometry (75, 78).

The subject of another series is DMT1-deficient MEL cells. Description: Differentiation and hemoglobinization of DMT1-deficient MEL cells. Type of series: cell-based, mouse. The note with it: 1 μM, three days. As for the experimental part:
Differentiation of MEL Cells with DMSO (FIG. 3D) To perform differentiation experiments with MEL cells (39), the indicated MEL cells were diluted to 1×10^5 cells/mL in MEL Complete media containing 10 μM iron (III) citrate and 2% DMSO in the absence or presence of 1 μM hinokitiol or C2deOHino (added from 1000X stock in DMSO) in 12-well plates. Cells were then incubated at 37° C. for 72 hours unless otherwise noted.
Hemoglobinized MEL cells were quantified three days after DMSO induction through o-dianisidine staining similar to previously reported (74). Cells were centrifuged three days after induction and rinsed with PBS. The cells were then suspended in a solution containing 7.5 mM o-dianisidine, 900 mM H2O2, and 150 mM acetic acid in water at ˜1×10^6 cells/mL. Cells were then imaged on an AXIO Zoom V16 microscope to obtain color images. The number of stained cells were then quantified via ImageJ analysis and compared to the number of total cells in each image. To determine that hinokitiol requires DMSO induction for hemoglobinization, 2% DMSO was not added at the beginning of the experiment before a 72-hour incubation and o-dianisidine staining.
MEL cells were induced for differentiation as described above and incubated at 37° C. for 70 hours before addition of a saturated iron-transferrin (^55Fe2Tf) solution (40 nM final concentration from a 10 μM ^55Fe2Tf stock). The cells were incubated for an additional two hours. After completion, the cells were counted with a hemocytometer, the media was removed after centrifugation, the cells were rinsed with PBS (×3), and the cell suspension was diluted in scintillation cocktail and radioactivity was determined. […] The cells were incubated for an additional eight hours. After completion, the cells were counted with a hemocytometer, the media was removed after centrifugation, and the cells were rinsed with PBS (×3). The cells were then lysed with RIPA buffer, diluted with water, and heme was extracted using a 3:1 ethyl acetate:acetic acid solution. An aliquot of the organic extract was diluted in scintillation cocktail and radioactivity was determined. Radioactive levels were normalized per cell (counted by hemocytometer) relative to wild type (DS19) levels.
MEL cells were induced for differentiation as described above and incubated at 37° C. for 72 hours. After completion, the cells were counted with a hemocytometer, the media was removed after centrifugation, and cells were rinsed with PBS (×2). The cells were then lysed through repeated freeze/thaw cycles with water, and hemoglobin levels per 10^6 cells were determined as previously described (77) by determining the OD415 after centrifugation. Globin levels by western blot were determined after differentiation as described above. After incubation for 72 hours, cells were lysed and globin levels were determined by western blot as described above.

In series [4] the test system is DMT1-deficient Caco-2 monolayers. Description: 55Fe uptake and transport in DMT1-deficient Caco-2 monolayers. The note with it: for iron uptake and transepithelial transport: apical addition (hinokitiol 500 nM), pH 5.5 apical, pH 7.4 basolateral, four hours. As for the experimental part: Media from differentiated Caco-2 monolayers (P25-50, 21-28 days post seeding) grown on PET inserts in 6-well plates was aspirated, and monolayers were rinsed with PBS. 2 mL of basolateral fluid (serum-free DMEM at pH=7.4 in 10 mM HEPES buffer) was added to the basolateralside, and 1 mL of apical fluid (serum-free DMEM at pH=5.5 in 10 mM MES buffer) containing 200 nM ^55FeCl3 or the indicated concentration of FeCl3 and either DMSO vehicle, hinokitiol, C2deOHino, deferiprone, PIH, SIH, or deferoxamine mesylate (Sigma D9533) (500 nM Hino/C2deOHino for DMT1-deficiency, 1 μM Hino/C2deOHino for FPN1-deficiency, or indicated concentration of small molecule from a 1000X stock in DMSO) was added to the apical side via addition on the wall of the membrane insert without disrupting the cell monolayer. The monolayers were then incubated for four hours at 37° C. unless otherwise noted. A 100 μL aliquot of the basolateral fluid was removed, diluted in scintillation cocktail, and radioactivity was determined on a liquid scintillation counter to quantify relative amounts of ^55Fe transport. To determine intracellular ^55Fe, the basolateral and apical media was removed, and the monolayer was rinsed with PBS (×2). The cells were then lysed with 500 μL of 200 mM NaOH with nutator mixing overnight, and radioactivity was determined on a liquid scintillation counter after diluting the cell lysate in scintillation cocktail. All values were normalized to shControl monolayers unless otherwise noted. Absolute iron levels were determined through calibration of ^55Fe radioactivity levels with known standards and average mg of protein per membrane was determined by protein lysis with RIPA buffer containing protease inhibitors and quantified through a BCA kit according to manufacturer instructions.
TEER determination in Caco-2 monolayers (FIG. 12D and FIG. 14L) To determine Caco-2 membrane integrity, transport studies were performed as described above, except for the use of non-radioactive iron instead of ^55FeCl3. At the indicated time points, the transepithelial electrical resistance (TEER) was determined with an epithelial voltohmmeter and compared to the TEER of the membrane at the beginning of the experiment.
(Caco-2 cells form a polarised layer with tight junctions and transporters.)

In series [1], `CC(C)c1cccc(=O)c(O)c1` [hinokitiol] returned an EC90 of more than 100 µM. In addition, in the series on J774, the observable toxicity entry is “without observable toxicity”. Moreover, the gut iron absorption result in series [2] (after one hour) is reported as “increased ^55Fe absorption back to control levels”. In addition, in series [3], the hemoglobinization result is “did not rescue”. Besides, the hemoglobinization entry in series [3] (listed as Hinokitiol) is given as “do not promote hemoglobinization”. For the same molecule, in the series on DMT1-deficient MEL cells, the 55Fe uptake entry is “restored”, the 55Fe-heme incorporation result is listed as “restored” and the hemoglobinization result is recorded as “restored”. The “monolayer integrity (TEER)” value in series [4] (500 nM) is recorded as “did not disrupt monolayer integrity”. Also, the “iron uptake and transepithelial transport” value in series [4] is “restored uptake and transport”.

Regarding `CC(C)c1cccc(=O)cc1` [C2deOHino, C2-deoxy hinokitiol], the “reduction in 59Fe absorption relative to sibling controls (+/+ or +/b)” value in series [2] was 2 fold. The hemoglobinization result in series [3] is recorded as “do not promote hemoglobinization”. Besides, in the series with DMT1-deficient MEL cells, the 55Fe uptake entry is recorded as “no effect”, the 55Fe-heme incorporation result is given as “no effect” and the hemoglobinization entry is reported as “no effect”. Besides, the “iron uptake and transepithelial transport” value in series [4] was “did not promote both uptake and transport”.
